Structures are written as SMILES.

The target of the assay is T1, HsTOP1 (Homo sapiens, UniProt P11387).
T1 construct: gene TOP1; recombinant human TOP1, wild type, purified from baculovirus expression
T1 sequence (P11387 2-765): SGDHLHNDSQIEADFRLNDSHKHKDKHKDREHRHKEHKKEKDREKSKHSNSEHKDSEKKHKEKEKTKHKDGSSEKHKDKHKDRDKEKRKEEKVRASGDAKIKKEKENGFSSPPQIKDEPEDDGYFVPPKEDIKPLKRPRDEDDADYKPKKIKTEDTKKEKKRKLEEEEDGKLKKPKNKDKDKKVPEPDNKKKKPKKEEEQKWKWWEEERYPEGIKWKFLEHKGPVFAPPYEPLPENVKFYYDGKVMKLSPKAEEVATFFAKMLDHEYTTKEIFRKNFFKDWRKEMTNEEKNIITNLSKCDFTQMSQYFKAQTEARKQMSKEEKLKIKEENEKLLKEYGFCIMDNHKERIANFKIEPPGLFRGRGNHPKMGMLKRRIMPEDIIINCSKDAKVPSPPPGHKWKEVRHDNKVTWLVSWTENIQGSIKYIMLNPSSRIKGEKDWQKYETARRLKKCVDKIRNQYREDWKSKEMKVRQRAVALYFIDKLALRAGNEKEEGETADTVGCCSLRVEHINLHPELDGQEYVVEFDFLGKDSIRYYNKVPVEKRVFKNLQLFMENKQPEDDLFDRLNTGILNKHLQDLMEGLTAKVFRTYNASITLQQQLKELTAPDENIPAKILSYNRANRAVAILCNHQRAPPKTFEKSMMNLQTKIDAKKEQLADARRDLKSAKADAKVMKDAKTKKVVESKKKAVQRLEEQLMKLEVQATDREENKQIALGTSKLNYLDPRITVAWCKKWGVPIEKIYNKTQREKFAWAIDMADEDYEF
In words: […]-labelled oligonucleotide cleavage assay, denaturing PAGE. It counts as biochemical. The following applies: traps TOP1-DNA cleavage complex; 30-bp DNA, pH 7.5, 5 mM Mg2+, 50 mM KCl, 25 °C.

With `CC[C@@]1(O)C(=O)OCc2c1cc1n(c2=O)Cc2cc3ccccc3nc2-1` [CPT, camptothecin], the CPT-dependent cleavage bands result is reported as “incubation of HsTOP1 induced TOP1ccs exclusively in the presence of CPT”.

(Values after PMC8748870, “Topoisomerase I (TOP1) dynamics: conformational transition from open to closed states” (Nature Communications, 2022).)
